Test [1] has as its system HPAC (homozygous mutant KRAS G12D human pancreatic cell line). Briefly: KRAS 3D-Cell Proliferation Assay, HPAC (Example 503). Format: cell-based. The following applies: Homo sapiens, HPAC, 168 h, HPAC 3D culture, 7 days, CellTiter-Glo 3D; read-out: Prolif HPAC 3D ATP IC50. The method in brief: (§1)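 IC50s come from a 4-parameter Hill fit of luminescence (CellTiter-Glo 3D) normalized between DMSO (0%) and 1 μM staurosporine (100%). Cells in low-attachment 3D culture, RPMI-1640 with 10% FBS, received serial compound dilutions (0.3% DMSO) after overnight and were incubated 7 days at 37 °C.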
For orientation: Cellular ATP, detected with luciferase, serves as a proxy for viable cell number.

Test [2] relates to H1975 (KRAS wild type human lung adenocarcinoma cell line). Briefly: KRAS 3D-Cell Proliferation Assay, H1975 (Example 503). The format is cell-based. The following applies: Homo sapiens, NCI-H1975, 168 h, H1975 3D culture, 7 days, CellTiter-Glo 3D; read-out: Prolif H1975 3D ATP IC50. The procedure, abridged:
as §1

The structures appear in SMILES notation.

The IC50 is the concentration that gives 50% inhibition. Consider `CO[C@@H]1CCN(CC2(COc3nc4c5c(nc(-c6cc(N)nc(C)c6C(F)(F)F)c(F)c5n3)O[C@@H](C)[C@@H]3[C@@H]5CC[C@H](CN43)N5)CC2)C[C@@H]1F` [Compound 275, 4-((5S,5aS,6S,9R)-1-fluoro-12-((1-(((3S,4R)-3-fluoro-4-methoxypiperidin-1-yl)methyl)cyclopropyl)methoxy)-5-methyl-5a,6,7,8,9,10-hexahydro-5H-4-oxa-3,10a,11,13,14-pentaaza-6,9-methanonaphtho[1,8-ab]heptalene-2-yl)-6-methyl-5-(trifluoromethyl)pyridin-2-amine], for which the half-maximal inhibitory concentration (IC50) in test [1] came out at 3.29 nM; in test [2], 5180 nM.
For `Cc1nc(N)cc(-c2nc3c4c(nc(OCC5(CN6CCC(C(F)F)C6)CC5)nc4c2F)N2C[C@H]4CC[C@H](N4)[C@H]2[C@H](C)O3)c1C(F)(F)F` (stereo partly drawn) [Compound 276, 4-((5S,5aS,6S,9R)-12-((1-((3-(difluoromethyl)pyrrolidin-1-yl)methyl)cyclopropyl)methoxy)-1-fluoro-5-methyl-5a,6,7,8,9,10-hexahydro-5H-4-oxa-3,10a,11,13,14-pentaaza-6,9-methanonaphtho[1,8-ab]heptalen-2-yl)-6-methyl-5-(trifluoromethyl)pyridin-2-amine], in that order: 1.82 nM and 1620 nM.
As to `Cc1nc(N)cc(-c2nc3c4c(nc(OCC5(CN6CC7(C6)CC7(F)F)CC5)nc4c2F)N2C[C@H]4CC[C@H](N4)[C@H]2[C@H](C)O3)c1C(F)(F)F` [Compound 277, 4-((5S,5aS,6S,9R)-12-((1-((1,1-difluoro-5-azaspiro[2.3]hexan-5-yl)methyl)cyclopropyl)methoxy)-1-fluoro-5-methyl-5a,6,7,8,9,10-hexahydro-5H-4-oxa-3,10a,11,13,14-pentaaza[6,9]methanonaphtho[1,8-ab]heptalene-2-yl)-6-methyl-5-(trifluoromethyl)pyridin-2-amine], the IC50 in test [1] is 2.09 nM; in test [2] it was 974 nM.
For `Cc1nc(N)cc(-c2nc3c4c(nc(OCC5(CN6CCC7(C6)CC7(F)F)CC5)nc4c2F)N2C[C@H]4CC[C@H](N4)[C@H]2[C@H](C)O3)c1C(F)(F)F` (stereo partly drawn) [Compound 279, 4-((5S,5aS,6S,9R)-12-((1-((1,1-difluoro-5-azaspiro[2.4]heptan-5-yl)methyl)cyclopropyl)methoxy)-1-fluoro-5-methyl-5a,6,7,8,9,10-hexahydro-5H-4-oxa-3,10a,11,13,14-pentaaza[6,9]methanonaphtho[1,8-ab]heptalene-2-yl)-6-methyl-5-(trifluoromethyl)pyridin-2-amine], in that order: 2.02 nM and 1270 nM.
As to `Cc1nc(N)cc(-c2nc3c4c(nc(OCC5(CN6CC7CCOC7C6)CC5)nc4c2F)N2C[C@H]4CC[C@H](N4)[C@H]2[C@H](C)O3)c1C(F)(F)F` (stereo partly drawn) [Compound 280, 4-((5S,5aS,6S,9R)-1-fluoro-12-((1-((hexahydro-5H-furo[2,3-c]pyrrol-5-yl)methyl)cyclopropyl)methoxy)-5-methyl-5a,6,7,8,9,10-hexahydro-5H-4-oxa-3,10a,11,13,14-pentaaza-6,9-methanonaphtho[1,8-ab]heptalene-2-yl)-6-methyl-5-(trifluoromethyl)pyridin-2-amine], the IC50 amounted to 1.77 nM in test [1] and 1340 nM in test [2].
For `Cc1nc(N)cc(-c2nc3c4c(nc(OCC5(CN6CC7(CCCO7)C6)CC5)nc4c2F)N2C[C@H]4CC[C@H](N4)[C@H]2[C@H](C)O3)c1C(F)(F)F` [Compound 281, 4-((5S,5aS,6S,9R)-12-((1-((5-oxa-2-azaspiro[3.4]octan-2-yl)methyl)cyclopropyl)methoxy)-1-fluoro-5-methyl-5a,6,7,8,9,10-hexahydro-5H-4-oxa-3,10a,11,13,14-pentaaza[6,9]methanonaphtho[1,8-ab]heptalene-2-yl)-6-methyl-5-(trifluoromethyl)pyridin-2-amine], in that order: 8.6 nM and 2430 nM.
For `Cc1nc(N)cc(-c2nc3c4c(nc(OCC5(CN6CCCC67CCOC7)CC5)nc4c2F)N2C[C@H]4CC[C@H](N4)[C@H]2[C@H](C)O3)c1C(F)(F)F` (stereo partly drawn) [Compound 282, 4-((5S,5aS,6S,9R)-12-((1-((7-oxa-1-azaspiro[4.4]nonan-1-yl)methyl)cyclopropyl)methoxy)-1-fluoro-5-methyl-5a,6,7,8,9,10-hexahydro-5H-4-oxa-3,10a,11,13,14-pentaaza[6,9]methanonaphtho[1,8-ab]heptalene-2-yl)-6-methyl-5-(trifluoromethyl)pyridin-2-amine], in that order: 3.96 nM and 2450 nM.
With `Cc1nc(N)cc(-c2nc3c4c(nc(OCC5(CN6CC[C@H](F)C6)CC5)nc4c2F)N2C[C@H]4CC[C@H](N4)[C@H]2[C@H](C)O3)c1C(F)(F)F` [Compound 283, 4-((5S,5aS,6S,9R)-1-fluoro-12-((1-(((S)-3-fluoropyrrolidin-1-yl)methyl)cyclopropyl)methoxy)-5-methyl-5a,6,7,8,9,10-hexahydro-5H-4-oxa-3,10a,11,13,14-pentaaza-6,9-methanonaphtho[1,8-ab]heptalene-2-yl)-6-methyl-5-(trifluoromethyl)pyridin-2-amine], the 50% inhibitory concentration (IC50) in test [1] turned out to be 1.58 nM; in test [2], 577 nM.
For `Cc1nc(N)cc(-c2nc3c4c(nc(OCC5(CN6CC[C@@H](F)C6)CC5)nc4c2F)N2C[C@H]4CC[C@H](N4)[C@H]2[C@H](C)O3)c1C(F)(F)F` [Compound 284, 4-((5S,5aS,6S,9R)-1-fluoro-12-((1-(((R)-3-fluoropyrrolidin-1-yl)methyl)cyclopropyl)methoxy)-5-methyl-5a,6,7,8,9,10-hexahydro-5H-4-oxa-3,10a,11,13,14-pentaaza-6,9-methanonaphtho[1,8-ab]heptalen-2-yl)-6-methyl-5-(trifluoromethyl)pyridin-2-amine], in that order: 1.23 nM and 490 nM.
As for `Cc1nc(N)cc(-c2nc3c4c(nc(OCC5(CN6CC7(CCC7(F)F)C6)CC5)nc4c2F)N2C[C@H]4CC[C@H](N4)[C@H]2[C@H](C)O3)c1C(F)(F)F` [Compound 285, 4-((5S,5aS,6S,9R)-12-((1-((5,5-difluoro-2-azaspiro[3.3]heptan-2-yl)methyl)cyclopropyl)methoxy)-1-fluoro-5-methyl-5a,6,7,8,9,10-hexahydro-5H-4-oxa-3,10a,11,13,14-pentaaza[6,9]methanonaphtho[1,8-ab]heptalene-2-yl)-6-methyl-5-(trifluoromethyl)pyridin-2-amine], the concentration for half-maximal inhibition (IC50) in test [1] amounted to 3.05 nM; in test [2], 608 nM.
As for `Cc1nc(N)cc(-c2nc3c4c(nc(OCC5(CN6CCC7(CCCO7)C6)CC5)nc4c2F)N2C[C@H]4CC[C@H](N4)[C@H]2[C@H](C)O3)c1C(F)(F)F` (stereo partly drawn) [Compound 287, 4-((5S,5aS,6S,9R)-12-((1-((1-oxa-7-azaspiro[4.4]nonan-7-yl)methyl)cyclopropyl)methoxy)-1-fluoro-5-methyl-5a,6,7,8,9,10-hexahydro-5H-4-oxa-3,10a,11,13,14-pentaaza[6,9]methanonaphtho[1,8-ab]heptalene-2-yl)-6-methyl-5-(trifluoromethyl)pyridin-2-amine], the half-maximal inhibitory concentration (IC50) in test [1] came to 5.72 nM; in test [2], 1380 nM.
For `Cc1nc(N)cc(-c2nc3c4c(nc(OCC5(CN6CCC(F)(F)C6)CC5)nc4c2F)N2C[C@H]4CC[C@H](N4)[C@H]2[C@H](C)O3)c1C(F)(F)F` [Compound 288, 4-((5S,5aS,6S,9R)-12-((1-((3,3-difluoropyrrolidin-1-yl)methyl)cyclopropyl)methoxy)-1-fluoro-5-methyl-5a,6,7,8,9,10-hexahydro-5H-4-oxa-3,10a,11,13,14-pentaaza-6,9-methanonaphtho[1,8-ab]heptalene-2-yl)-6-methyl-5-(trifluoromethyl)pyridin-2-amine], in that order: 18.8 nM and 9810 nM.
Take `Cc1nc(N)cc(-c2nc3c4c(nc(OCC5(CN6CC(C)(F)C6)CC5)nc4c2F)N2C[C@H]4CC[C@H](N4)[C@H]2[C@H](C)O3)c1C(F)(F)F` [Compound 289, 4-((5S,5aS,6S,9R)-1-fluoro-12-((1-((3-fluoro-3-methylazetidin-1-yl)methyl)cyclopropyl)methoxy)-5-methyl-5a,6,7,8,9,10-hexahydro-5H-4-oxa-3,10a,11,13,14-pentaaza-6,9-methanonaphtho[1,8-ab]heptalene-2-yl)-6-methyl-5-(trifluoromethyl)pyridin-2-amine]: the values for the concentration for half-maximal inhibition (IC50) in test [1] and in test [2] were 3.15 nM and 573 nM, respectively.
Consider `CO[C@@H]1CN(CC2(COc3nc4c5c(nc(-c6cc(N)nc(C)c6C(F)(F)F)c(F)c5n3)O[C@@H](C)[C@@H]3[C@@H]5CC[C@H](CN43)N5)CC2)C[C@@H]1F` [Compound 290, 4-((5S,5aS,6S,9R)-1-fluoro-12-((1-(((3S,4R)-3-fluoro-4-methoxypyrrolidin-1-yl)methyl)cyclopropyl)methoxy)-5-methyl-5a,6,7,8,9,10-hexahydro-5H-4-oxa-3,10a,11,13,14-pentaaza-6,9-methanonaphtho[1,8-ab]heptalen-2-yl)-6-methyl-5-(trifluoromethyl)pyridin-2-amine], for which the IC50 was determined as 2.53 nM in test [1] and 2780 nM in test [2].
On to `CO[C@H]1CN(CC2(COc3nc4c5c(nc(-c6cc(N)nc(C)c6C(F)(F)F)c(F)c5n3)O[C@@H](C)[C@@H]3[C@@H]5CC[C@H](CN43)N5)CC2)C[C@@H]1F` [Compound 291, 4-((5S,5aS,6S,9R)-1-fluoro-12-((1-(((3S,4S)-3-fluoro-4-methoxypyrrolidin-1-yl)methyl)cyclopropyl)methoxy)-5-methyl-5a,6,7,8,9,10-hexahydro-5H-4-oxa-3,10a,11,13,14-pentaaza-6,9-methanonaphtho[1,8-ab]heptalen-2-yl)-6-methyl-5-(trifluoromethyl)pyridin-2-amine], for which the IC50 turned out to be 4.09 nM in test [1] and 12200 nM in test [2].

The record behind these values is patent US12338256B2, “Aza-tetracyclic oxazepine compounds and uses thereof” (Genentech, Inc., priority 2022, dated 2025).
